Values after ≈ are worked out from the molar mass of the structure shown. Read-outs that look alike come from different tables or passages of the source.
Assays:
Assay type in all cases: cell-based
Escherichia coli = assay: Broth microdilution MIC (Example 6); details: Escherichia coli, read-out: MIC
Description: (§1) Test Compounds: The test agents BisEDT (MB-1-B3; Lot No. ED268-1-11-01), MB-2B, and MB-6 were stored at room temperature, in the dark, until assayed.
(§2) For testing daptomycin, calcium was supplemented with […] Ca^2+, resulting in a final concentration of […] Ca^2+ (2, 3).
(§3) MIC Assay Procedure: MIC values were determined using a broth microdilution procedure described by CLSI (2, 3).
(§4) The Biomek 2000 was then used to make 2-fold serial dilutions in the mother plates from column 1 through column 11. The wells of column 12 contained no drug and served as the organism growth control wells for the assay.
(§5) The test panels were prepared on the Biomek FX instrument which transferred 2 μL of drug solution from each well of a mother plate to the corresponding well of each daughter plate in a single step.
(§6) A standardized inoculum of each test organism was prepared per CLSI methods to equal a 0.5 McFarland standard, followed by a dilution of 1:20. The plates were then inoculated with 10 μL of the diluted inoculum using the Biomek 2000 from low to high drug concentration resulting in a final concentration of approximately 5×10^5 CFU/mL.
(§7) Plates were stacked 3-4 high, covered with a lid on the top plate, placed into plastic bags, and incubated at 35° C. for 16 to 20 hr (vancomycin was read for S. aureus after 24 hr incubation time). The MIC was recorded as the lowest concentration of drug that inhibited visible growth of the organism.

Klebsiella pneumoniae = assay: Broth microdilution MIC (Example 6); details: Klebsiella pneumoniae, read-out: MIC
Description: as §1, §2, §3, §4, §5, §6, §7

Pseudomonas aeruginosa = assay: Broth microdilution MIC (Example 6); details: Pseudomonas aeruginosa, read-out: MIC
Description: as §1, §2, §3, §4, §5, §6, §7

Acinetobacter baumannii = assay: Broth microdilution MIC (Example 6); details: Acinetobacter baumannii
Summary of the method: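 CLSI broth microdilution in cation-adjusted Mueller Hinton broth, test agents 0.06-64 μg/mL from DMSO stocks, inoculum approx. 5×10^5 CFU/mL. Incubation 35° C for 16–20 hr; MIC taken as lowest concentration inhibiting visible growth.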

[1] = system: relevant ATCC QC organisms; assay: Broth microdilution MIC, QC (Example 6)
Description: Test Compounds: The test agents BisEDT (MB-1-B3; Lot No. ED268-1-11-01), MB-2B, and MB-6 were stored at room temperature, in the dark, until assayed. The solvent and diluent for the test agents was DMSO (Sigma; St. Louis, MO; Lot No. SHBB9319V) and the prepared stock concentration was 6,464 μg/mL (101× the final test concentration).
Test compounds were evaluated at a concentration range of 0.06-64 μg/mL. For Gram-negative test isolates, amikacin and ceftazidime (alone and with clavulanate at a fixed concentration of 4 μg/mL) were evaluated over a concentration range of 0.06-64 μg/mL; meropenem and levofloxacin were evaluated over a concentration range of 0.008-8 μg/mL. For the testing of S. aureus, clindamycin, daptomycin, levofloxacin and vancomycin were evaluated at a concentration range of 0.008-8 μg/mL; linezolid was tested from 0.03-32 μg/mL.
Organisms: The test organisms as shown in Tables 11-15 consisted of clinical isolates from the Micromyx (MMX) repository and reference strains from the American Type Culture Collection (ATCC; Manassas, VA), National Collection of Type Cultures (NCTC; Public Health England, Salisbury, UK), the Network on Antimicrobial Resistance in Staphylococcus aureus (NARSA; BEI Resources, Manassas, VA), and the Centers for Disease Control and Prevention (CDC; Atlanta, GA). The test organisms were maintained frozen at −80° C. Prior to testing, the isolates were cultured on Tryptic Soy Agar with 5% sheep blood (BAP; Becton Dickson [BD]/BBL; Sparks, MD; Lot Nos. 9080650 and 9108563) at 35° C. Relevant ATCC quality control (QC) organisms (Table 16) were included during testing in accordance with CLSI guidelines (3). Further details on the genetic characterization of the isolates where available can be found in Table 17.
Media: Cation-adjusted Mueller Hinton broth (CAMHB; BD; Lot No. 8190586) was used as the medium for testing (2, 3). For testing daptomycin, calcium was supplemented with […] Ca^2+, resulting in a final concentration of […] Ca^2+ (2, 3).
MIC Assay Procedure: MIC values were determined using a broth microdilution procedure described by CLSI (2, 3). Automated liquid handlers (Multidrop 384, Labsystems, Helsinki, Finland; Biomek 2000 and Biomek F X, Beckman Coulter, Fullerton CA) were used to conduct serial dilutions and liquid transfers.
To prepare the drug mother plates, which would provide the serial drug dilutions for the replicate daughter plates, the wells of columns 2 through 12 of standard 96-well microdilution plates (Costar 3795) were filled with 150 μl of the appropriate diluent for each row of drug. The test articles and comparator compounds (300 μl at 101× the highest concentration to be tested) were dispensed into the appropriate wells in column 1. The Biomek 2000 was then used to make 2-fold serial dilutions in the mother plates from column 1 through column 11. The wells of column 12 contained no drug and served as the organism growth control wells for the assay.
The daughter plates were loaded with 190 μL per well of RPMI using the Multidrop 384. The test panels were prepared on the Biomek FX instrument which transferred 2 μL of drug solution from each well of a mother plate to the corresponding well of each daughter plate in a single step.
as §6, §7

[2] = ATCC35218, E. coli ATCC 35218, ESBL
[3] = K. pneumoniae CDC 135, ESBL/VIM
[4] = P. aeruginosa isolate CDC 241, β-lactamase type IMP/OXA

`CC(C)(O/N=C(\C(=O)N[C@@H]1C(=O)N2C(C(=O)[O-])=C(C[n+]3ccccc3)CS[C@H]12)c1csc(N)n1)C(=O)O` [Ceftazidime] gave an MIC (Escherichia coli; [2]) of 0.12 µg/mL (≈ 0.22 µM), an MIC (Escherichia coli; ATCCBAA2471, E. coli ATCC BAA-2471, NDM) greater than 64 µg/mL and an MIC (Escherichia coli; E. coli CDC 114, ESBL/KPC) greater than 64 µg/mL. The MIC (Escherichia coli; E. coli CDC 118, ESBL/NDM) was greater than 64 µg/mL, the MIC (Escherichia coli; E. coli CDC 435, NDM) was greater than 64 µg/mL and the MIC (Escherichia coli; E. coli CDC 451, KPC) was 64 µg/mL (≈ 117 µM). It also gave an MIC (Escherichia coli; E. coli CDC 503, ESBL/NDM) greater than 64 µg/mL, an MIC (Escherichia coli; E. coli MMX 5745, KPC) of 32 µg/mL (≈ 58.5 µM) and an MIC (Escherichia coli; E. coli MMX 5755, ESBL) greater than 64 µg/mL. The MIC (Escherichia coli; E. coli MMX 5756, ESBL) was greater than 64 µg/mL, the MIC (Escherichia coli; E. coli MMX 5758, ESBL) was 16 µg/mL (≈ 29.3 µM) and the MIC (Klebsiella pneumoniae; ATCCBAA1705, K. pneumoniae ATCC BAA-1705, ESBL/KPC) was greater than 64 µg/mL. It also gave an MIC (Klebsiella pneumoniae; K. pneumoniae CDC 112, KPC) greater than 64 µg/mL, an MIC (Klebsiella pneumoniae; K. pneumoniae CDC 113, ESBL/KPC) greater than 64 µg/mL and an MIC (Klebsiella pneumoniae; K. pneumoniae CDC 115, ESBL/KPC) greater than 64 µg/mL. For the same compound, the MIC (Klebsiella pneumoniae; K. pneumoniae CDC 120, ESBL/KPC) was greater than 64 µg/mL, the MIC (Klebsiella pneumoniae; K. pneumoniae CDC 126, ESBL/KPC) was 4 µg/mL (≈ 7.32 µM) and the MIC (Klebsiella pneumoniae; K. pneumoniae CDC 129, ESBL/KPC) was greater than 64 µg/mL. For the same compound, the MIC (Klebsiella pneumoniae; [3]) was greater than 64 µg/mL, the MIC (Klebsiella pneumoniae; K. pneumoniae CDC 138, ESBL/NDM) was greater than 64 µg/mL and the MIC (Klebsiella pneumoniae; K. pneumoniae CDC 158, ESBL/NDM/OXA) was greater than 64 µg/mL. It also gave an MIC (Klebsiella pneumoniae; K. pneumoniae MMX 9029, ESBL) of 4 µg/mL (≈ 7.32 µM), an MIC (Pseudomonas aeruginosa; P. aeruginosa isolate CDC 230, β-lactamase type VIM/OXA) of 64 µg/mL (≈ 117 µM) and an MIC (Pseudomonas aeruginosa; P. aeruginosa isolate CDC 231, β-lactamase type KPC/OXA) greater than 64 µg/mL. For the same compound, the MIC (Pseudomonas aeruginosa; [4]) was greater than 64 µg/mL, the MIC (Pseudomonas aeruginosa; P. aeruginosa isolate CDC 246, β-lactamase type NDM/OXA) was greater than 64 µg/mL and the MIC (Pseudomonas aeruginosa; P. aeruginosa isolate CDC 250, β-lactamase type NDM/OXA) was greater than 64 µg/mL. The MIC (Pseudomonas aeruginosa; P. aeruginosa isolate CDC 356, β-lactamase type KPC) was 64 µg/mL (≈ 117 µM), the MIC (Pseudomonas aeruginosa; P. aeruginosa isolate CDC 439, β-lactamase type IMP) was greater than 64 µg/mL and the MIC (Pseudomonas aeruginosa; P. aeruginosa isolate CDC 444, β-lactamase type VIM) was 32 µg/mL (≈ 58.5 µM). For the same compound, the MIC (Pseudomonas aeruginosa; P. aeruginosa isolate CDC 457, β-lactamase type VIM) was greater than 64 µg/mL, the MIC (Pseudomonas aeruginosa; P. aeruginosa isolate CDC 516, β-lactamase type KPC/AmpC) was 64 µg/mL (≈ 117 µM) and the MIC (Pseudomonas aeruginosa; P. aeruginosa isolate CDC 518, β-lactamase type KPC/AmpC) was 32 µg/mL (≈ 58.5 µM). The MIC (Acinetobacter baumannii; A. baumannii isolate CDC 273, β-lactamase type ESBL/OXA, read-out: MIC) was 64 µg/mL, the MIC (Acinetobacter baumannii; A. baumannii isolate CDC 274, β-lactamase type ESBL/OXA, read-out: MIC) was greater than 64 µg/mL and the MIC (Acinetobacter baumannii; A. baumannii isolate CDC 275, β-lactamase type ESBL/OXA, read-out: MIC) was greater than 64 µg/mL. It also gave an MIC (Acinetobacter baumannii; A. baumannii isolate CDC 277, β-lactamase type ESBL/OXA, read-out: MIC) greater than 64 µg/mL, an MIC (Acinetobacter baumannii; A. baumannii isolate CDC 284, β-lactamase type ESBL/OXA, read-out: MIC) of 64 µg/mL and an MIC (Acinetobacter baumannii; A. baumannii isolate CDC 307, β-lactamase type OXA, read-out: MIC) of 64 µg/mL. The MIC (Acinetobacter baumannii; A. baumannii isolate CDC 308, β-lactamase type ESBL/OXA, read-out: MIC) was 64 µg/mL, the MIC (Acinetobacter baumannii; A. baumannii isolate CDC 311, β-lactamase type OXA, read-out: MIC) was greater than 64 µg/mL and the MIC (Acinetobacter baumannii; A. baumannii isolate CDC 312, β-lactamase type OXA, read-out: MIC) was greater than 64 µg/mL. It also gave an MIC (Acinetobacter baumannii; A. baumannii isolate CDC 313, β-lactamase type ESBL/OXA, read-out: MIC) greater than 64 µg/mL, an MIC (Acinetobacter baumannii; NCTC13304, A. baumannii isolate NCTC 13304, β-lactamase type OXA, read-out: MIC) greater than 64 µg/mL and an MIC ([1]; Escherichia coli, ATCC25922, E. coli ATCC 25922, read-out: MIC) of 0.25 µg/mL. For the same compound, the MIC ([1]; Escherichia coli, ATCC35218, E. coli ATCC 35218, read-out: MIC) was 0.12 µg/mL, the MIC ([1]; Klebsiella pneumoniae, ATCCBAA1705, K. pneumoniae ATCC BAA-1705, read-out: MIC) was greater than 64 µg/mL and the MIC ([1]; Pseudomonas aeruginosa, ATCC27853, P. aeruginosa ATCC 27853, read-out: MIC) was 2 µg/mL.
`CCC[C@@H]1C[C@@H](C(=O)N[C@@H]([C@H]2O[C@H](SC)[C@H](O)[C@@H](O)[C@H]2O)[C@H](C)Cl)N(C)C1` [CLI] was tested, and the MIC ([1]; S. aureus ATCC 29213) was 0.25 µg/mL.
`CC(S)C(C)S.[Bi]` (stereo not drawn) [MB-6, bismuth-2,3-butanedithiol] gave an MIC (Escherichia coli; [2]) of 1 µg/mL, an MIC (Escherichia coli; E. coli MMX 5755, ESBL) of 2 µg/mL and an MIC (Escherichia coli; E. coli MMX 5756, ESBL) of 1 µg/mL. For the same compound, the MIC (Klebsiella pneumoniae; [3]) was 4 µg/mL, the MIC (Klebsiella pneumoniae; K. pneumoniae MMX 9029, ESBL) was 2 µg/mL and the MIC (Pseudomonas aeruginosa; [4]) was 8 µg/mL. The MIC (Acinetobacter baumannii; A. baumannii isolate CDC 273, β-lactamase type ESBL/OXA) was 0.5 µg/mL, the MIC (Acinetobacter baumannii; A. baumannii isolate CDC 274, β-lactamase type ESBL/OXA) was 0.5 µg/mL and the MIC (Acinetobacter baumannii; A. baumannii isolate CDC 275, β-lactamase type ESBL/OXA) was 0.5 µg/mL. It also gave an MIC (Acinetobacter baumannii; A. baumannii isolate CDC 277, β-lactamase type ESBL/OXA) of 1 µg/mL, an MIC (Acinetobacter baumannii; A. baumannii isolate CDC 284, β-lactamase type ESBL/OXA) of 1 µg/mL and an MIC (Acinetobacter baumannii; A. baumannii isolate CDC 307, β-lactamase type OXA) of 0.5 µg/mL. It also gave an MIC (Acinetobacter baumannii; A. baumannii isolate CDC 308, β-lactamase type ESBL/OXA) of 0.5 µg/mL, an MIC (Acinetobacter baumannii; A. baumannii isolate CDC 311, β-lactamase type OXA) of 0.5 µg/mL and an MIC (Acinetobacter baumannii; A. baumannii isolate CDC 312, β-lactamase type OXA) of 0.5 µg/mL. For the same compound, the MIC (Acinetobacter baumannii; A. baumannii isolate CDC 313, β-lactamase type ESBL/OXA) was 0.5 µg/mL and the MIC (Acinetobacter baumannii; NCTC13304, A. baumannii isolate NCTC 13304, β-lactamase type OXA) was 0.5 µg/mL.

Source: patent US20240285571A1, “METHODS OF TREATING BONE INFECTIONS” (MICROBION CORPORATION, priority 2020, published 2024)
